# From ChEMBL document CHEMBL3886760, “Cyclic amine substituted heterocyclic CETP inhibitors” (2016)
# Target: T1, Cholesteryl ester transfer protein (Homo sapiens, UniProt P11597)
# T1 sequence (P11597 whole entry): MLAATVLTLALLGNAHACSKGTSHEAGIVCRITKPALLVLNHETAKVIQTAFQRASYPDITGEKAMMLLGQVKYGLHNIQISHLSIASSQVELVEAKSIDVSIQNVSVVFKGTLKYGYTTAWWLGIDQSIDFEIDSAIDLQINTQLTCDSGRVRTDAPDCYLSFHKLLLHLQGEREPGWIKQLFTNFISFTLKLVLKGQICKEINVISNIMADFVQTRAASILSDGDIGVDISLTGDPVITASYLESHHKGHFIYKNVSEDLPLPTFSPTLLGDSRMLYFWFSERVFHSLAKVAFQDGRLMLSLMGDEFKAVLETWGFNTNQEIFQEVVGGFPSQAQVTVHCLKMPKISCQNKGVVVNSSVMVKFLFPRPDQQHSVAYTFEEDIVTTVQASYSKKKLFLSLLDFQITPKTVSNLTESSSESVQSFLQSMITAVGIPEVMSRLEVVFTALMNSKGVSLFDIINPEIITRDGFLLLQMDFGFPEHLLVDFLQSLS
# Assay: Scintillation Proximity Assay (SPA): First, low density lipoprotein (LDL) (Meridian) was biotinylated by incubating LDL with biotin for 1 hour on ice, after which it was dialyzed to remove free biotin. Then compounds at varying concentrations were incubated with 15 nM CETP (reagent production group, In Vitro Pharmacology, MRL Rahway) and 50 ug/ml of the biotinylated LDL in 50 mM HEPES, 150 mM NaCl, pH 7.4, for 1 hour at 37° C. The reaction was started by adding 3H-cholesterol ester high density lipoprotein (HDL) (American Radiochemicals Corp) at a concentration of 0.6 nM. The reaction proceeded for 2 hours at 37° C., after which time it was quenched by the addition of 12% acetic acid. PVT streptavadin-coated scintillation proximity beads, which had been brought to room temperature, were then added at a concentration of 4 mg/ml. The assay was then mixed and counted after one half hour in a Microbeta plate reader.
compound,measurement,value
COc1ncc(Cl)cc1-c1cnc(N2CC(F)C2)nc1CN1C(=O)O[C@H](c2cc(C(F)(F)F)cc(C(F)(F)F)c2)[C@@H]1C,IC50,38 nM
